Test results from US12037355B2, “Triterpene saponin analogues” (priority 2015, dated 2024).

What was measured:
[1] = Companion toxicity study, body mass three days after immunization
Method: (§1) Natural and synthetic QS-21 (SQS-21 or SAPONEX®) and a variety of analogs were tested for hemolytic activity.

pertussis toxin = test: Adacel (Tdap vaccine) immunogenicity in mice, anti-PT antibody in serum; assay type: in vivo; conditions: for Antibody levels augmented compared to immunization with Adacel alone: adjuvant with Adacel
[2] = Pilot pharmacology/toxicology study with Adacel, QS-21 and TiterQuil-1055; conditions: for changes in blood chemistry or hematology results: SC days 1 and 15, bled day 22 (group 7 day 29); for weight loss (body weight): mice, 50 mcg TiterQuil-1055, 20 mcg QS-21; for liver histopathology (hepatocellular cytoplasmic vacuolization): sacrificed day 22, 33 tissues examined
Stability at 37° C. = assay type: physicochemical; conditions: for degradation: after two weeks at 37° C.
Method: as §1

hemolysis = test: Hemolytic assay; assay type: cell-based
Method: as §1

[3] = Weight loss in Engerix-B / TiterQuil-1055 study; conditions: mice
[4] = cited from earlier work
[5] = groups of 5 mice, 2 weeks after second SC immunization
[6] = groups of 5 mice, 50 mcg TiterQuil-1055, 20 mcg QS-21, Adacel 2.5 mcg pertussis toxin
[7] = 50 mcg TiterQuil-1055, 20 mcg QS-21, Adacel 2.5 mcg pertussis toxin

| Molecule | body mass gained on average ([1]; young mice) [%] | Antibody levels (pertussis toxin; 0.5 mcg dose of Adacel, alone or with TiterQuil-1055, groups of 5 mice, 2 weeks after second SC immunization) | Antibody levels 2 weeks later (pertussis toxin; TiterQuil-1055 with Adacel, 2 weeks after the 2-week post-second-immunization bleed) | Antibody levels augmented compared to immunization with Adacel alone (pertussis toxin; [5]) [fold] | changes in blood chemistry or hematology results [2, 6] | weight loss ([2]; groups of 5 mice, SC days 1 and 15, weighed daily, 50 mcg TiterQuil-1055, 20 mcg QS-21, Adacel 2.5 mcg pertussis toxin) | weight loss (body weight) [2] | liver histopathology (hepatocellular cytoplasmic vacuolization) [2, 7] | stability relative to QS-21 (Stability at 37° C.) | degradation (Stability at 37° C.) | hemolytic activity (hemolysis) | weight loss ([3]; 30 mcg TiterQuil-1055 dose) | weight loss ([3]; 100 mcg TiterQuil-1055 dose) [%] | weight loss ([3]; 300 mcg TiterQuil-1055 dose) [%] | body mass lost on average ([1]; 20 mcg QS-21) | tolerated (maximum) dose in cancer patients ([4]; cancer patients, above this dose local and systemic side effects) [µg] | maximum dose for healthy patients ([4]; healthy patients) [µg] | highest practical tolerable dose ([4]; well (non-cancer) adult and child recipients) [µg] |
| --- | --- | --- | --- | --- | --- | --- | --- | --- | --- | --- | --- | --- | --- | --- | --- | --- | --- | --- |
| CC1O[C@@H](OC2C(O)[C@@H](NC(=O)CCCCCCCCCCC(=O)O)C(CO)O[C@H]2OC(=O)[C@]23CCC(C)(C)CC2C2=CCC4C5(C)CC[C@H](O)C(C)(C=O)C5CC[C@]4(C)C2(C)CC3O)C(O)C(O)[C@H]1O[C@@H]1OC[C@@H](O)C(O)C1O (stereo partly drawn) [Compound I-4] | 5 | 52,344 | further increased | 70 | No changes | no other mice | No weight loss | No changes at all | increased stability | without detectable degradation | much lower or undetectable hemolytic activity | No weight loss | 4 | 5 | – | – | – | – |
| QS-21 [reference compound] | – | – | – | 10 | No changes | – | 8-9% | Mild vacuolar changes | – | 20% | highly hemolytically active | – | – | – | 8-10% | 100 to 150 | ~50 | 25 to 50 |
